Tests used:
[1] = biological target: T1, hEP2 (Homo sapiens, UniProt P43116); test: hEP2 flipr assay; assay type: cell-based
Source text: (§1) United States Patent Application Serial No. 11/553,143, filed on October 26, 2006, describes the methods used to obtain the in vitro data in the table below.

[2] = biological target: T2, hEP4 (Homo sapiens, UniProt P35408); test: hEP4 flipr assay; assay type: cell-based
Source text: as §1

[3] = biological target: T1, hEP2; test: hEP2 cAMP assay; assay type: cell-based
Source text: as §1

[4] = biological target: T1, hEP2; test: hEP2 binding; settings: read-out: hEP2 Kl
Source text: as §1

[5] = biological target: T2, hEP4; test: hEP4 binding
Source text: as §1

T1 sequence (P43116 whole entry): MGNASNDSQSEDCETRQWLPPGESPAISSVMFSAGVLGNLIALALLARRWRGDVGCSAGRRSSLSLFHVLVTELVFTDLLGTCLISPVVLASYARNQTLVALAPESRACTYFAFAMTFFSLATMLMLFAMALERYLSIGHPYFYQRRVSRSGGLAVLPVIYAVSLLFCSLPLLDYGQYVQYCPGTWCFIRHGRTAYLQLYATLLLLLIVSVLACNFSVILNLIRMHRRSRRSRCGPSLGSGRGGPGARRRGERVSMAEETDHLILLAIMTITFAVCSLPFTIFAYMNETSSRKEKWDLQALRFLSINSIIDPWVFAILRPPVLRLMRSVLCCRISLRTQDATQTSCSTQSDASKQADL
T2 sequence (P35408 whole entry): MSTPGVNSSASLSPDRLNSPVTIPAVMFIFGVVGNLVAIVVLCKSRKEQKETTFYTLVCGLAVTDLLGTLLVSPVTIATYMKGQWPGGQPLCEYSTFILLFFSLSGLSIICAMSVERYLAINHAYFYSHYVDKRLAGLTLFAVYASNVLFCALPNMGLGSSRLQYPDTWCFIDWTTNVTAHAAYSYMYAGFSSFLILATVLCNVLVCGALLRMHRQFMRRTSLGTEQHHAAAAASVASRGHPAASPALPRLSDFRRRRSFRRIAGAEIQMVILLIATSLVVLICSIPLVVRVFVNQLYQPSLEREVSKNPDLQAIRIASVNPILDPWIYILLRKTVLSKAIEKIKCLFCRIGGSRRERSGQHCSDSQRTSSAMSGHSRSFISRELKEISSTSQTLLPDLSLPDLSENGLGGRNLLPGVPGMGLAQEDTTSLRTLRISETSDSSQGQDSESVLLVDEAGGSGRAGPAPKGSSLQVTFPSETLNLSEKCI

EC50 [1]: 424 nM
EC50 [2]: > 10000 nM
EC50 [3]: 4.8 nM
Ki [4]: 81 nM
Ki [5]: 1580 nM
SMILES: O=C(O)c1ccc(CCCC2=CC[C@@H](O)[C@@H]2COc2cc(Cl)cc(Cl)c2)s1 [Example 1, 5-{3[(4R,5S)-5-(3,5-Dichloro-phenoxymethyl)-4-hydroxy-cyclopent·1-enyl]-propyl}-thiophene-2-carboxylic acid]

From EP2114875B1, “SUBSTITUTED ARYLCYLOPENTENES AS THERAPEUTIC AGENTS” (ALLERGAN, INC., priority 2007, dated 2008)
